How the values were obtained:
[1] = molecular target: T1, human dopamine D2L receptors (long isoform) (Homo sapiens, UniProt P14416); test: Dopamine D2L receptor binding, displacement of [125I] iodospiperone; conditions: membranes of HEK-293 cells, 0.01 nM [125I] iodospiperone, 25° C., 60 minutes; read-out: Ki D2
T1 construct: expressed in transfected cells; host or cells: HEK-293
Method: (§1) The substance to be tested was either dissolved in methanol/Chremophor® (BASF-AG) or in dimethyl sulfoxide and then diluted with water to the desired concentration.
(§2) Each assay mixture was run in triplicate.
The incubation buffer contained 50 mM tris, 120 mM NaCl, 5 mM KCl, 2 mM CaCl2, 2 mM MgCl2 and 0.1% bovine serum albumin. The buffer was adjusted to pH 7.4 with HCl.
(§3) After having been incubated at 25° C. for 60 minutes, the assay mixtures were filtered through a Wathman GF/B glass fiber filter under vacuum using a cell collecting device. The filters were transferred to scintillation viols using a filter transfer system. After 4 ml of Ultima Gold® (Packard) have been added, the samples were shaken for one hour and the radioactivity was then counted in a Beta-Counter (Packard, Tricarb 2000 or 2200CA). The cpm values were converted into dpm using a standard quench series and the program belonging to the instrument.
(§4) The inhibition curves were analyzed by means of iterative nonlinear regression analysis using the Statistical Analysis System (SAS) which is similar to the “LIGAND” program described by Munson and Rodbard.

[2] = molecular target: T2, human dopamine D3 receptors (Homo sapiens, UniProt P35462); test: Dopamine D3 receptor binding, displacement of [125I]-iodosulpride; conditions: for Ki: membranes of HEK-293 cells, 0.1 nM [125I]-iodosulpride, 25° C., 60 minutes; for Selectivity [Ki(D2)/Ki(D3)]: ratio of Ki D2 to Ki D3
T2 construct: expressed in transfected cells; host or cells: HEK-293
Method: as §1, §2
The incubation buffer contained 50 mM tris, 120 mM NaCl, 5 mM KCl, 2 mM CaCl2, 2 mM MgCl2 and 0.1% bovine serum albumin, 10 μM quinolone and 0.1% ascorbic acid (prepared fresh daily). The buffer was adjusted to pH 7.4 with HCl.
as §3, §4

T2 sequence (P35462 whole entry): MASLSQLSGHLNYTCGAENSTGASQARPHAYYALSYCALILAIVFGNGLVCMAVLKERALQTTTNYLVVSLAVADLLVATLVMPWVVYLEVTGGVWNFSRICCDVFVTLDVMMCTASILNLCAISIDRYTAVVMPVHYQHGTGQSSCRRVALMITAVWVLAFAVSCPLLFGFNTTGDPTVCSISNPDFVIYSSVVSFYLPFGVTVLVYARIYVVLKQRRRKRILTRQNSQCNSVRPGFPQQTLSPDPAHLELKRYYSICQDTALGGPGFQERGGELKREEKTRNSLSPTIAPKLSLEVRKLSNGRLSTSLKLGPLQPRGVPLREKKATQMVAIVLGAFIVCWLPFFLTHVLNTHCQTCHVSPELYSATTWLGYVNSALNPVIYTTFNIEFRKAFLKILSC
T1 sequence (P14416 whole entry, canonical isoform): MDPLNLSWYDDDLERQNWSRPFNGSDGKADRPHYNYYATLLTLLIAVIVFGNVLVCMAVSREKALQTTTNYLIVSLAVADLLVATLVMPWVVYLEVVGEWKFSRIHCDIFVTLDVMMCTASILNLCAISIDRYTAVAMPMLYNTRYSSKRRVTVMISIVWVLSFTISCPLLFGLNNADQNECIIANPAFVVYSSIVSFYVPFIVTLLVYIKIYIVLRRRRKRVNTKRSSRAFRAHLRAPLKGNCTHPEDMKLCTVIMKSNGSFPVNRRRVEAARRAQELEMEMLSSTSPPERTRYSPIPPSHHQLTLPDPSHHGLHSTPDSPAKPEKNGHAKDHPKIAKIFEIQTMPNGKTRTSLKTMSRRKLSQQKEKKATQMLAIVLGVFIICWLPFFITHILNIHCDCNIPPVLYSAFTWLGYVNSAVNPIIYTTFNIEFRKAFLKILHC

melting point [°C]	SMILES	Ki [1] [nM]	Ki [2] [nM]	Selectivity [Ki(D2)/Ki(D3)] [2]
	Cn1c(N)nnc1SCCCN1CCN(c2cc(C(C)(C)C)nc(C(C)(C)C)n2)CC1 [A]	12	0.7	19
	Cn1c(N)nnc1SCCCN1CCN(c2cc(C(F)(F)F)nc(C(C)(C)C)n2)CC1 [B]	119	3.9	31
92 to 95	Cl.Cn1cnnc1SCCCN1CCN(c2cc(C(F)(F)F)nc(C(C)(C)C)n2)CC1 [Example 6, 2-tert-Butyl-4-{4-[3-(4-methyl-4H-[1,2,4]triazol-3-ylsulfanyl)-propyl]-piperazin-1-yl}-6-trifluoromethyl-pyrimidine hydrochloride]			
